Measured values as given in PubChem BioAssay (NCI).
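A five-concentration, 48-hour dose response in 96-well plates underlies each endpoint, interpolated linearly between surrounding concentrations. GI50: concentration for 50% inhibition of growth. TGI denotes the concentration required for complete inhibition of growth.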

Experiments:
Experiment in all cases: DTP human tumour cell line panel, 48 h
786-0 renal = test system: 786-0 renal
A498 renal = test system: A498 renal
A549 NSCLC = test system: A549 NSCLC
ACHN renal = test system: ACHN renal
BT-549 breast = test system: BT-549 breast
CAKI-1 renal = test system: CAKI-1 renal
CCRF-CEM leukemia = test system: CCRF-CEM leukemia
COLO 205 colon = test system: COLO 205 colon
DU-145 prostate = test system: DU-145 prostate
EKVX NSCLC = test system: EKVX NSCLC
HCC-2998 colon = test system: HCC-2998 colon
HCT-116 colon = test system: HCT-116 colon
HCT-15 colon = test system: HCT-15 colon
HL-60(TB) leukemia = test system: HL-60(TB) leukemia
HOP-62 NSCLC = test system: HOP-62 NSCLC
HOP-92 NSCLC = test system: HOP-92 NSCLC
HS 578T breast = test system: HS 578T breast
HT29 colon = test system: HT29 colon
IGROV1 ovarian = test system: IGROV1 ovarian
K-562 leukemia = test system: K-562 leukemia
KM12 colon = test system: KM12 colon
LOX IMVI melanoma = test system: LOX IMVI melanoma
M14 melanoma = test system: M14 melanoma
MALME-3M melanoma = test system: MALME-3M melanoma
MCF7 breast = test system: MCF7 breast
MDA-MB-231 breast = test system: MDA-MB-231 breast
MDA-MB-435 = test system: MDA-MB-435
MOLT-4 leukemia = test system: MOLT-4 leukemia
NCI-H226 lung = test system: NCI-H226 lung
NCI-H23 lung = test system: NCI-H23 lung
NCI-H460 lung = test system: NCI-H460 lung
NCI-H522 lung = test system: NCI-H522 lung
NCI/ADR-RES ovarian = test system: NCI/ADR-RES ovarian
OVCAR-3 ovarian = test system: OVCAR-3 ovarian
OVCAR-4 ovarian = test system: OVCAR-4 ovarian
OVCAR-5 ovarian = test system: OVCAR-5 ovarian
OVCAR-8 ovarian = test system: OVCAR-8 ovarian
PC-3 prostate = test system: PC-3 prostate
RPMI-8226 leukemia = test system: RPMI-8226 leukemia
RXF 393 renal = test system: RXF 393 renal
SF-268 CNS = test system: SF-268 CNS
SF-295 CNS = test system: SF-295 CNS
SF-539 CNS = test system: SF-539 CNS
SK-MEL-2 melanoma = test system: SK-MEL-2 melanoma
SK-MEL-28 melanoma = test system: SK-MEL-28 melanoma
SK-MEL-5 melanoma = test system: SK-MEL-5 melanoma
SK-OV-3 ovarian = test system: SK-OV-3 ovarian
SN12C renal = test system: SN12C renal
SNB-19 CNS = test system: SNB-19 CNS
SNB-75 CNS = test system: SNB-75 CNS
SR leukemia = test system: SR leukemia
SW-620 colon = test system: SW-620 colon
T-47D breast = test system: T-47D breast
TK-10 renal = test system: TK-10 renal
U251 CNS = test system: U251 CNS
UACC-257 melanoma = test system: UACC-257 melanoma
UACC-62 melanoma = test system: UACC-62 melanoma
UO-31 renal = test system: UO-31 renal

O=C(c1cccs1)c1c(C(F)(F)F)n([O-])c2ccc(Cl)cc2[n+]1=O
GI50 (786-0 renal): 36.2 nM
TGI (786-0 renal): 69 nM
GI50 (A498 renal): 10800 nM
TGI (A498 renal): 18500 nM
GI50 (A549 NSCLC): 168 nM
TGI (A549 NSCLC): 730 nM
GI50 (ACHN renal): 16.7 nM
TGI (ACHN renal): 44.2 nM
GI50 (BT-549 breast): 289 nM
TGI (BT-549 breast): 655 nM
GI50 (CAKI-1 renal): 128 nM
TGI (CAKI-1 renal): 671 nM
GI50 (CCRF-CEM leukemia): 93.3 nM
GI50 (COLO 205 colon): 569 nM
TGI (COLO 205 colon): 10200 nM
GI50 (DU-145 prostate): 311 nM
TGI (DU-145 prostate): 547 nM
GI50 (EKVX NSCLC): 185 nM
TGI (EKVX NSCLC): 523 nM
GI50 (HCC-2998 colon): 735 nM
TGI (HCC-2998 colon): 1430 nM
GI50 (HCT-116 colon): 46.5 nM
TGI (HCT-116 colon): 723 nM
GI50 (HCT-15 colon): 109 nM
TGI (HCT-15 colon): 359 nM
GI50 (HL-60(TB) leukemia): 152 nM
TGI (HL-60(TB) leukemia): 1510 nM
GI50 (HOP-62 NSCLC): 64.9 nM
TGI (HOP-62 NSCLC): 146 nM
GI50 (HOP-92 NSCLC): 866 nM
TGI (HOP-92 NSCLC): 5680 nM
GI50 (HS 578T breast): 11400 nM
TGI (HS 578T breast): > 34000 nM
GI50 (HT29 colon): 1290 nM
TGI (HT29 colon): > 50000 nM
GI50 (IGROV1 ovarian): 56.3 nM
TGI (IGROV1 ovarian): 1650 nM
GI50 (K-562 leukemia): 115 nM
TGI (K-562 leukemia): 2620 nM
GI50 (KM12 colon): 111 nM
TGI (KM12 colon): 302 nM
GI50 (LOX IMVI melanoma): 65.3 nM
TGI (LOX IMVI melanoma): 131 nM
GI50 (M14 melanoma): 322 nM
TGI (M14 melanoma): 1090 nM
GI50 (MALME-3M melanoma): 6360 nM
TGI (MALME-3M melanoma): 13900 nM
GI50 (MCF7 breast): 94.2 nM
TGI (MCF7 breast): 2480 nM
GI50 (MDA-MB-231 breast): 124 nM
TGI (MDA-MB-231 breast): 431 nM
GI50 (MDA-MB-435): 289 nM
TGI (MDA-MB-435): 2020 nM
GI50 (MOLT-4 leukemia): 28.9 nM
TGI (MOLT-4 leukemia): 340 nM
GI50 (NCI-H226 lung): 398 nM
TGI (NCI-H226 lung): 2360 nM
GI50 (NCI-H23 lung): 454 nM
TGI (NCI-H23 lung): 2260 nM
GI50 (NCI-H460 lung): 359 nM
TGI (NCI-H460 lung): > 24900 nM
GI50 (NCI-H522 lung): 406 nM
TGI (NCI-H522 lung): 6070 nM
GI50 (NCI/ADR-RES ovarian): 1750 nM
TGI (NCI/ADR-RES ovarian): 6240 nM
GI50 (OVCAR-3 ovarian): 461 nM
TGI (OVCAR-3 ovarian): 2850 nM
GI50 (OVCAR-4 ovarian): 2610 nM
TGI (OVCAR-4 ovarian): > 50000 nM
GI50 (OVCAR-5 ovarian): 2020 nM
TGI (OVCAR-5 ovarian): 9680 nM
GI50 (OVCAR-8 ovarian): 1260 nM
TGI (OVCAR-8 ovarian): > 20900 nM
GI50 (PC-3 prostate): 97.2 nM
TGI (PC-3 prostate): 339 nM
GI50 (RPMI-8226 leukemia): 5 nM
TGI (RPMI-8226 leukemia): 16.3 nM
GI50 (RXF 393 renal): 2090 nM
TGI (RXF 393 renal): 11700 nM
GI50 (SF-268 CNS): 434 nM
TGI (SF-268 CNS): 1360 nM
GI50 (SF-295 CNS): 149 nM
TGI (SF-295 CNS): 703 nM
GI50 (SF-539 CNS): 282 nM
TGI (SF-539 CNS): 568 nM
GI50 (SK-MEL-2 melanoma): 912 nM
TGI (SK-MEL-2 melanoma): > 20800 nM
GI50 (SK-MEL-28 melanoma): 9460 nM
TGI (SK-MEL-28 melanoma): > 50000 nM
GI50 (SK-MEL-5 melanoma): 541 nM
TGI (SK-MEL-5 melanoma): 2540 nM
GI50 (SK-OV-3 ovarian): 7810 nM
TGI (SK-OV-3 ovarian): 20100 nM
GI50 (SN12C renal): 175 nM
TGI (SN12C renal): 572 nM
GI50 (SNB-19 CNS): 1210 nM
TGI (SNB-19 CNS): > 14800 nM
GI50 (SNB-75 CNS): 2760 nM
TGI (SNB-75 CNS): > 50000 nM
GI50 (SR leukemia): 154 nM
TGI (SR leukemia): 621 nM
GI50 (SW-620 colon): 248 nM
TGI (SW-620 colon): 4680 nM
GI50 (T-47D breast): 505 nM
GI50 (TK-10 renal): 106 nM
TGI (TK-10 renal): 333 nM
GI50 (U251 CNS): 130 nM
TGI (U251 CNS): 586 nM
GI50 (UACC-257 melanoma): 614 nM
TGI (UACC-257 melanoma): 3360 nM
GI50 (UACC-62 melanoma): 212 nM
TGI (UACC-62 melanoma): 562 nM
GI50 (UO-31 renal): 185 nM
TGI (UO-31 renal): 745 nM
